This assay has as its target α7 nAChR subtype (Rattus norvegicus, UniProt Q05941). The format is binding. Particulars: read-out: KD of radioligand from saturation curves.

We go through one substance from patent publication US7384954B2 (priority 2003, dated 2008).

Sequence of α7 nAChR subtype (Q05941 23-502 limits assumed): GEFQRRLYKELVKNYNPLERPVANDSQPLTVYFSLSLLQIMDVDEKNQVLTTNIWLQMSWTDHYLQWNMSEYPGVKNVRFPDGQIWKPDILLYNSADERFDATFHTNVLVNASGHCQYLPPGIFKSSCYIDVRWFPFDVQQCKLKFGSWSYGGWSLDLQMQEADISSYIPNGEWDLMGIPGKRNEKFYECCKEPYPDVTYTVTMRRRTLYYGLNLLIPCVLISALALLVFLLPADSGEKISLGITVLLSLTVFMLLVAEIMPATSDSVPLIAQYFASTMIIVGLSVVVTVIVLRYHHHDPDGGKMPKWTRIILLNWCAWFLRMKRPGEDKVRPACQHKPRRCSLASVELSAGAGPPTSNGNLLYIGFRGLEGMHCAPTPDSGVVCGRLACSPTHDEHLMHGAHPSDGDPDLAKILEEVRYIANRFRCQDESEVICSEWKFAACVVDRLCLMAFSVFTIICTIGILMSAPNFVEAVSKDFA

As to 125I-α-Bungarotoxin [[^125I]-α-BTX], the Kd amounted to 1.67 nM.
